Test results taken from patent US20100323972A1, “NON-IMMUNOSUPPRESSIVE CYCLOSPORIN FOR THE TREATMENT OF MUSCULAR DYSTROPHY” (priority 2008, published 2010).
“Also recorded” adds a separate entry of the source.

Columns and labels:
mouse model of Duchenne = conditions: inhibition of calcineurin; cited from earlier work
scgd−/− mice [1] = assay: Percentage fibrosis in muscles (hydroxyproline content / trichrome-stained sections); assay type: in vivo; conditions: trichrome-stained sections of diaphragm, tibialis anterior, gastrocnemius, quadriceps
From the text: FIG. 2(c) represents reduction of muscle pathology after administration of D-[MeAla]^3-[EtVal]^4-CsA in scgd−/− mice as assessed by quantitation of fibrotic areas in trichrome-stained sections from diaphragm (Diaph.), tibialis anterior (TA), gastrocnemius (Gastroc.), quadriceps (Quad). Assessed were sections from wild type (Wt) mice treated with either vehicle (white bar) or D-[MeAla]^3-[EtVal]^4-CsA (black bar) and from scgd−/− mice treated with either vehicle (gray bar or second to last bar in group) or D-[MeAla]^3-[EtVal]^4-CsA (dotted bar or last bar of group).
Different dissected muscles, gastrocnemius, quadriceps, tibialis anterior and heart muscles, were weighed and muscle weight (MW)-to-tibia length (TL) ratios (MW/TL) were determined. Results in FIG. 2(a) and FIG. 2(c) are presented as means±SEM (standard error of the means). A one-way ANOVA was used to compare means among 3 or more independent groups. […]
Percentage fibrosis was assessed by means of a biochemical assay that quantified hydroxyproline content (Parsons et al., Am. J. Pathol., 2006, 168:1975-1985) in diaphragm (Diaph.), tibialis anterior (TA), gastrocnemius (Gastroc.) and quadriceps (Quad) muscles from wild type and scgd−/− mice treated or not treated with D-[MeAla]^3-[EtVal]^4-CsA.

scgd−/− mice [2] = assay: Quantitation of the distribution of fiber areas in skeletal muscles; assay type: in vivo; conditions: 50 mg/kg/day subcutaneous for 6 weeks; for Fiber area distribution / heterogeneity: 50 mg/kg/day
From the text: (§1) FIG. 3(a) represents reduction of fiber area heterogeneity in muscle from scgd−/− mice after the administration of D-[MeAla]^3-[EtVal]^4-CsA as assessed by quantitation of the distribution of fiber areas in tibialis anterior (muscle). The study included wild type (Wt) mice treated with either vehicle (white bar) or D-[MeAla]^3-[EtVal]^4-CsA (black bar) and scgd−/− mice treated with either vehicle (gray bar or second to last bar in group) or D-[MeAla]^3-[EtVal]^4-CsA (dotted bar or last bar of group).
as §1, with “3(b)” for “3(a)”, “gastrocnemius. Included in the” for “tibialis anterior (muscle). The”, “were” for “included”
as §1, with “3(c)” for “3(a)”, “quadriceps muscle. Measurements were carried out on” for “tibialis anterior (muscle). The study included”
Scgd−/− mice were administered subcutaneously with either D-[MeAla]^3-[EtVal]^4-CsA at a dose of 50 mg/kg/day or vehicle for 6 weeks. […] The administration of the non-immunosuppressive D-[MeAla]^3-[EtVal]^4-CsA to scgd−/− mice reduced the regeneration rate of the fibers and normalized partially the distribution of small and large fibers.

scgd−/− mice [3] = assay: Muscle weight-to-tibia length ratios (pseudo-hypertrophy) in treated scgd−/− mice; assay type: in vivo
Method: (§2) Different dissected muscles, gastrocnemius, quadriceps, tibialis anterior and heart muscles, were weighed and muscle weight (MW)-to-tibia length (TL) ratios (MW/TL) were determined. Results in FIG. 2(a) and FIG. 2(c) are presented as means±SEM (standard error of the means). A one-way ANOVA was used to compare means among 3 or more independent groups. A Newman-Keuls post hoc test was applied whenever multiple comparisons were conducted using InStat 3.0 (GraphPad software from Science Inc.). Values were considered significant when p<0.05.
In response to the numerous degeneration/regeneration cycles, scgd—/− mice initially presented with hypertrophic skeletal muscles as are seen in subjects suffering from LGMD. […] Reduction of skeletal muscular hypertrophy was about 1.3 fold in gastrocnemius (Gastroc.), quadriceps (Quad.) and tibialis anterior (TA) and about 1.2 fold in heart muscle (Heart) of D-[MeAla]^3-[EtVal]^4-CsA-treated scgd−/− mice compared to vehicle-treated animals.

scgd−/− mice [4] = assay: Hematoxylin- and eosin-stained histological sections of quadriceps; assay type: in vivo; conditions: 50 mg/kg/day subcutaneous
From the text: FIG. 2(b) represents reduction of muscle pathology after administration of D-[MeAla]^3-[EtVal]^4-CsA in Scgd−/− mice observed in representative hematoxylin- and eosin-stained sections of quadriceps from wild type (Wt) mice and scgd−/− mice treated with D-[MeAla]^3-[EtVal]^4-CsA. Corresponding vehicle controls are also shown.
as §2
Reduced pathology in the scgd−/− mice treated with D-[MeAla]^3-[EtVal]^4-CsA was also observed in histological slides of quadriceps (FIG. 2(b)).

Substance | Effect on muscle pathology (mouse model of Duchenne) | Effect on fibrotic areas (FIG. 2(c)) (scgd−/− mice [1]) | Fiber area distribution / heterogeneity (scgd−/− mice [2]; gastrocnemius) | Fiber area distribution / heterogeneity (scgd−/− mice [2]; quadriceps) | Population of small fibers compared to vehicle-treated scgd−/− mice (scgd−/− mice [2]; three skeletal muscles) | Fiber area distribution / heterogeneity (scgd−/− mice [2]; tibialis anterior) | Reduction of skeletal muscular hypertrophy (MW/TL) compared to vehicle-treated animals (scgd−/− mice [3]; gastrocnemius, 50 mg/kg/day subcutaneous, 4 to 10 weeks of age) | Effect on disease-associated increase in muscle weight (FIG. 2(a)) (scgd−/− mice [3]; gastrocnemius, quadriceps, tibialis anterior, heart) | Reduction of hypertrophy (MW/TL) compared to vehicle-treated animals (scgd−/− mice [3]; heart muscle, 50 mg/kg/day subcutaneous, 4 to 10 weeks of age) | Reduction of skeletal muscular hypertrophy (MW/TL) compared to vehicle-treated animals (scgd−/− mice [3]; quadriceps, 50 mg/kg/day subcutaneous, 4 to 10 weeks of age) | Reduction of skeletal muscular hypertrophy (MW/TL) compared to vehicle-treated animals (scgd−/− mice [3]; tibialis anterior, 50 mg/kg/day subcutaneous, 4 to 10 weeks of age) | Myofiber organization and fiber area distributions in histological slides (scgd−/− mice [4])
cyclosporin A [CsA] | deleterious |  |  |  |  |  |  |  |  |  |  | 
[D-MeAla]^3-[EtVal]^4-CsA [D-[MeAla]^3-[EtVal]^4-CsA] |  | reduced fibrosis | normalized fiber area heterogeneity; also recorded: partially normalized | normalized fiber area heterogeneity; also recorded: partially normalized | Less small fibers | normalized fiber area heterogeneity; also recorded: partially normalized | about 1.3 fold | prevents an increase in muscle weight | about 1.2 fold | about 1.3 fold | about 1.3 fold | Improvement in myofiber organization and normalization of fiber area distributions
